{
  "source": "patent US20110143960A1",
  "about": "“3D-MODELS FOR HIGH-THROUGHPUT SCREENING DRUG DISCOVERY AND DEVELOPMENT” (priority 2009, published 2011)",
  "key": {"MDA-MB-231 spheroids [1]": {"test_system": "MDA-MB-231 spheroids", "assay": "Modified Boyden chamber cell invasion assay of cells dissociated from spheroids", "type": "cell-based", "settings": "control modulators, 72 h treatment, 24 h invasion, FIG. 6", "description": "Spheroids were treated as in the primary assay. Following treatment, each sample group was disassociated into single cell suspensions and seeded into invasion chambers followed by a 24 h incubation period. VimPro-Fluc-MDA-MB-231 spheroids were treated with control EMT modulators as described using 15 spheroids per sample group. The spheroids for each sample group were pooled into 1.5 ml, micro tubes and collected by centrifugation at 10,000 rpm for 10 min at room temperature.\nEach sample group was then treated with 200 μL of spheroid dissociation solution (0.25% trypsin-EDTA) and incubated at 37° C. for 30 min. Single cell suspensions of each group in RPMI-1640 medium containing 0.1% BSA were seeded at 35,000 cells/chamber (50 μL) into the top chambers of a 96-well invasion plate (BD Biosciences; Bedford, Mass.) previously coated with 50 μL of […]™ (40 μg/mL protein in RPMI-1640 medium). Chemoattractant (10%\nFBS in RPMI-1640 medium, 150 μL) was added to each bottom chamber and the plate was incubated (37° C., 5% CO2) for 24 h. Following incubation the insert was removed and the medium aspirated from both top and bottom chambers. […] Each side of the membrane insert was washed 2× by adding 200 μL PBS-CMF (Ca/Mg free) to the bottom chamber, replacing the insert and adding 50 μL PBS-CMF to the top chamber. The PBS-CMF was removed and the invading cells were fixed with 200 μL of 4% paraformaldahyde in the bottom chambers at 37° C. for 15 min. The insert was washed 2× with PBS-CMF as described above. The invading cells were subsequently stained with 200 μL of DAPI (3 μg/mL) in PBS-CMF for 30 min at room temperature and washed 4×, as described above, in 15 min intervals. Invading cells were quantified using five random fields per filter insert in triplicate at 20× magnification using a fluorescent microscope equipped with metamorph image analysis and quantification software (Molecular Devices; Downingtown, Pa.)."}, "[2]": {"test_system": "VimPro-Fluc-MDA-MB-231 spheroids", "assay": "Live 3D-spheroid vimentin expression assay (VimPro-Fluc, DMNPE-caged luciferin)", "type": "cell-based", "settings": "read-out: IC50 vimentin expression, dose response", "method": "Uniform single-spheroids of MDA-MB-231 and VimPro-Fluc-MDA-MB-231 breast carcinoma cells were cultured in 96-well flat bottom plates coated with 50 μL of a 1.5% agarose (weight/volume) solution in serum free RPMI-1640 (no phenol red) medium (freshly autoclaved at 121° C. for 15 min). During the coating process the agarose/RPMI-1640 solution was maintained at >60° C. followed by cooling and setting at room temperature for 40 min. Cells were plated at a density of 10,000 cells/well in 50 μL of RPMI-1640 (10% FBS, no phenol red) and centrifuged at 1,000 rpm for 15 min to induce cell aggregation. […]\nVimPro-Fluc-MDA-MB-231 spheroids were cultured in 96-well optical bottom white plates and treated as described above. On day 8, after 72 h treatment with control EMT modulators, live spheroid vimentin expression was measured by adding 10 μL (final 12.5 μM) of DMNPE-caged luciferin to each well and incubating at 37° C., 5% CO2 for 2 h.\nUniform single spheroids were cultured in 96-well optical bottom white plates as described above and treated on day 5. […] After 72 h, vimentin expression was measured by adding 10 μL (final 12.5 μM) of DMNPE-caged luciferin to each well and incubated for 2 h (37° C., 5% CO2). Luminescence was recorded with an integration time of 1 second/well (FIG. 9A-D)."}, "[3]": {"test_system": "vimentin in MDA-MB-231 spheroids", "assay": "Immunofluorescent vimentin staining of whole and sectioned spheroids (confocal)", "type": "cell-based", "settings": "whole spheroid, outer surface / peripheral layer; U0126 10 μM 72 h", "method": "Confocal 3D imaging emphasizes a surface edge of MDA-MB-231 spheroids untreated or treated with (10 μM) U0126 for 72 hours.\nSpheroids were fixed with 50 μL of 3.7% formaldehyde for 10 min at room temperature. They were then washed once with PBS and 50 μL of 0.2% Triton X-100 in PBS (v/v) were added for 10 min at room temperature to permeate cells. Next they were blocked with 50 μL of cell culture medium (10% FBS) for 1 h at room temperature. Blocking medium was then aspirated and sphroids were treated with mouse anti-vimentin at 1:100 in TBST containing 20% cell culture medium (v/v) with shaking at 4° C. overnight. They were then washed (3×TBST) and stained with FITC green fluorescent conjugated goat anti-mouse secondary antibody at 1:1,000 and with DAPI (4′,6-diamidino-2-phenylindole) at 1:1,000 in TBST containing 20% cell culture medium (v/v) for 1 h at room temperature and washed with TBST 4×. After fixing with formaldehyde, some spheroids were sectioned using a Leica CM 1950 cryostat (Leica Microsystems; Germany) with thickness of 10 μm. Spheroid sections were washed with PBS and stained as described above. Spheroid sections on slides were covered with mounting medium and cover slips. Imaging of whole spheroids was done with an UltraVIEW® VoX 3D confocal microscope (Perkin Elmer) using a 20× objective. Spheroid sections were imaged using a Nikon D-Eclipse Cl confocal microscope system (Nikon Instruments Inc; Melville, N.Y.).\nVimentin expression in VimPro-Fluc-MDA-MB-231 spheroids was further assessed by immunofluorescent staining of whole spheroids treated with U0126."}, "[4]": {"test_system": "EGF-treated PMC42-LA cells", "description": "(§1) Cell lines were cultured as monolayers in 96-well microplates and treated with U0126, the specific inhibitor of mitogen-activated protein kinase kinase (MEK1)."}, "MDA-MB-231 cells": {"test_system": "MDA-MB-231 cells", "description": "as §1"}, "[5]": {"test_system": "VimPro-Fluc-MDA-MB-231 cells", "type": "cell-based", "settings": "VimPro-Fluc-MDA-MB-231 monolayer, 72 h", "description": "(§2) A 2D-screen was conducted with small molecule antitumor agents, growth factors or antibodies (FIG. 2B). All cells were cultured in 100 mm tissue culture dishes in RPMI-1640 supplemented with 10% FBS and maintained in a 5% CO2 incubator at 37° C. VimPro-Fluc-MDA-MB-231 and VimPro-Fluc-PMC42-LA were seeded at 5,000 cells/well into 96-well white plates and incubated overnight for 16 h. VimPro-Fluc-PMC42-LA and VimPro-Fluc-MDA-MB-231 cells were treated for 72 h. The treatment medium was replaced with 50 μL fresh medium, then 50 μL of One-Glo Luciferase reagent and incubated at room temperature for 10 min. Luminescence was recorded with an integration time of 1 sec/well using a luminescence microplate reader."}, "[6]": {"test_system": "VimPro-Fluc-PMC42-LA cells", "type": "cell-based", "settings": "VimPro-Fluc-PMC42-LA monolayer, 10 ng/mL EGF, 72 h", "description": "as §2"}, "MDA-MB-231 spheroids [7]": {"test_system": "MDA-MB-231 spheroids", "assay": "Spheroid viability, APH assay multiplexed after vimentin readout", "type": "cell-based", "settings": "for spheroid death (control of APH assay): 10% Triton X-100, 2 h prior to APH analysis", "description": "Cell Viability To support the primary assay hit validation, two cell viability assays have been developed: the acid phosphatase assay (APH) and the cell-titer-glow (Promega®). Both assays give robust reproducible results in both 2D and 3D cell culture. We can also multiplex these assays using live VimPro-Fluc stable 3D-spheroids (FIG. 5). On day 8, vimentin expression was measured (luminescence as RLU/s), using a live cell permeable luciferin reagent, followed by multiplexing with the APH assay (OD405). […] Thus, downregulation of VimPro-Fluc activity by the control modulators is not due to spheroid death.\nUniform single spheroids were cultured in 96-well optical bottom white plates as described above and treated on day 5. To avoid edge effects the outer wells were unused and filled with sterilized water. 15 μL of controls and marine natural products were added to each well at final concentrations described above. After 72 h, vimentin expression was measured by adding 10 μL (final 12.5 μM) of DMNPE-caged luciferin to each well and incubated for 2 h (37° C., 5% CO2). Luminescence was recorded with an integration time of 1 second/well (FIG. 9A-D). Directly following the primary assay measuring vimentin expression, spheroid viability was multiplexed using the APH assay. Hits were confirmed using the cell invasion assay (FIG. 9E)."}},
  "note": "“Also recorded” adds a separate entry of the source. Where two headings read alike, the source gives them in different places.",
  "data": [
    {"compound": "C[C@@H](Oc1cc(-c2cnn(C3CCNCC3)c2)cnc1N)c1c(Cl)ccc(F)c1Cl", "note": "[PF2341066, PF-2341066]", "values": [
      {"measurement": "inhibition of invasive potential vs untreated spheroids", "setting": "MDA-MB-231 spheroids [1]", "result": "about 90%"},
      {"measurement": "invasive potential of MDA-MB-231 spheroids (in words)", "setting": "MDA-MB-231 spheroids [1]", "result": "significant inhibition"}
    ]},
    {"compound": "N#CC(=C(/N)Sc1ccccc1N)/C(C#N)=C(\\N)Sc1ccccc1N", "note": "[U0126]", "values": [
      {"measurement": "inhibition of invasive potential vs untreated spheroids", "setting": "MDA-MB-231 spheroids [1]", "result": "about 90%"},
      {"measurement": "invasive potential of MDA-MB-231 spheroids (in words)", "setting": "MDA-MB-231 spheroids [1]", "result": "significant inhibition"},
      {"measurement": "IC50", "setting": "[2]", "result": 2.5, "unit": "µM"},
      {"measurement": "vimentin protein expression by immunofluorescence", "setting": "[3]", "result": "overall vimentin downregulation; also recorded: Significant downregulation of vimentin protein expression; also recorded: repression of Vimentin expression"},
      {"measurement": "invasive potential", "setting": "[4]", "result": "significantly diminished"},
      {"measurement": "invasive potential", "setting": "MDA-MB-231 cells", "result": "significantly diminished"},
      {"measurement": "vimentin expression", "setting": "[5]", "result": "significant downregulation of vimentin expression"},
      {"measurement": "EGF-induced EMT (vimentin upregulation)", "setting": "[6]", "result": "significantly inhibited"}
    ]},
    {"compound": "CNC(=O)c1ccccc1Sc1ccc2c(/C=C/c3ccccn3)n[nH]c2c1", "note": "[Axitinib]", "values": [
      {"measurement": "IC50", "setting": "[2]; VimPro-Fluc spheroids, FIG. 8B", "result": 0.25, "unit": "µM"}
    ]},
    {"compound": "CO[C@@H]1[C@H](N(C)C(=O)c2ccccc2)C[C@H]2O[C@]1(C)n1c3ccccc3c3c4c(c5c6ccccc6n2c5c31)C(=O)NC4", "note": "[PKC412]", "values": [
      {"measurement": "invasive potential of MDA-MB-231 spheroids (in words)", "setting": "MDA-MB-231 spheroids [1]", "result": "significant inhibition"}
    ]},
    {"compound": "Triton X-100", "values": [
      {"measurement": "spheroid death (control of APH assay)", "setting": "MDA-MB-231 spheroids [7]", "result": "significantly induces spheroid death"},
      {"measurement": "spheroid death (control of APH assay)", "setting": "MDA-MB-231 spheroids [7]; listed as Triton-X-100", "result": "significantly induced spheroid death"}
    ]},
    {"compound": "COc1c(OC)c2c(c(CCN(C)C)c1SC)Sc1c(CCN(C)C)c(SC)c(OC)c(OC)c1S2", "note": "[lissoclinotoxin E]", "values": [
      {"measurement": "spheroid viability vs untreated spheroids on day 5", "setting": "MDA-MB-231 spheroids [7]; marine natural product hits, 10 μM, 72 h, APH assay", "result": "exception; also recorded: statistically significant decrease in spheroid viability"}
    ]},
    {"compound": "COc1cc2ncnc(Nc3cccc(Cl)c3)c2cc1OC", "note": "[AG1478]", "values": [
      {"measurement": "vimentin expression", "setting": "[5]", "result": "no statistically significant effect"},
      {"measurement": "EGF-induced EMT (vimentin upregulation)", "setting": "[6]", "result": "significantly inhibited"}
    ]}
  ]
}
